Key:
[1] = Concentration and elimination of ADP and its metabolites in liver, kidney, muscle, fat/skin after oral ^3H-ADP for 7 d; type: in vivo, swine; settings: swine, oral, 5 mg/kg b.w.
Description: (§1) A total of 36 animals from each species (swine n = 24) were randomly assigned to six equal treatment groups and administered a single daily dose of ^3 H-ADP at 5 mg/kg b. w. (0.1 Ci/g) through oral gavage for 7 consecutive days. All the animals were housed on the basis of their group in the cages or aquaria throughout the whole study period. A group of animals was slaughtered through exsanguination under diethyl ether inhalation of anesthesia in the period of 6 h, 1, 3, 7, 14, and 21 d after the administration. The blood samples were immediately collected into the heparinized tubes and was centrifuged at 1920 × g at 4 °C for 10 min to obtain the plasma. The tissues from the heart, liver, spleen, lung, kidney, craw (broilers), stomach, intestine, fat, skin, muscle, thymus, pancreas, bile, bladder, hair (scale for carp), genital gland, adrenal glands, swim bladder (carp), brain, lymph, and bursa (broilers) were carefully excised and collected. The tissues were thoroughly rinsed with the deionized water to remove the residuary blood, blotted to dryness, and finally to perform the homogenization. In order to avoid cross-contamination the dissecting instruments were washed during the tissue procurements. The blank tissues were collected in order to provide control matrices. The total radioactivity levels in each sample were determined through LSC. The samples extracted from the plasma, bile, and tissues of the liver, kidney, muscle, and fat/skin were analyzed through LC/MS-IT-TOF and v. ARC radiometric detection for metabolite profiling. The blank samples were used as control to determine the background radioactivity or the endogenous nondrug-related ions observed within respective matrices or their extracts.
(§2) The feces and tissues (2 g) were diluted with a mixture of methanol and chloroform (1:3, v:v; 2 mL/g homogenate). This procedure was carried out in a fume hood for the safety aspects. The pH value was adjusted to 9.0 with NH4OH. The mixture was vortexed and sonicated for 5 min and 10 min, respectively, and finally the samples were centrifuged at 7690 × g for 10 min. The supernatant was aspirated and then transferred into a new centrifuge tube. The obtained pellet was again subjected to the same process of vortex, ultrasonication, extraction, and centrifugation. The combined supernatant was concentrated under a stream of nitrogen in a water bath at 40 °C. The residue was reconstituted with 0.3 mL of methanol–water (1:9, v:v) before the injection into the LC-v. ARC/MS-IT-TOF system for analysis.
(§3) ADP and its metabolites in the prepared samples were determined with a v. ARC radiometric detector and a hybrid IT/TOF mass spectrometer connected to the HPLC system (Shimadzu Corp., Kyoto, Japan). The LC system was equipped with a solvent delivery pump (LC-20AD), an auto-sampler (SIL-20AC), a degasser (DGU-20 A 3), a photodiode array detector (SPD-M20A), a communication base module (CBM-20 A), and a column oven (CTO-20AC). The chromatographic separation was achieved by using an Agilent extend-C18 column (2.1 mm × 150 mm, 5 μm) with a gradient mobile phase of A (0.01% ammonia and 5 mM ammonium acetate in water) and B (methanol) at a flow rate of 0.2 mL/min. The column temperature was maintained at 35 °C. Various HPLC methods were performed because of the large number of different metabolites to be analyzed. For the porcine sample, method 1 started at 5% B and increased to 20% B over 35 min, then to 55% B by 60 min, followed by re-equilibration for another 10 min. For the remaining samples, method 2 started at 10% B and increased to 60% B over 30 min, subsequently was maintained at 60% B for an additional 10 min, and then changed to 90% B over 2 min and maintained for 2 min. Afterwards, a re-equilibration step (decreased to 10% B over 1 min and maintained at 10% B for additional 9 min) was followed. For each matrix, more than 98% of the radioactivity injected into the column was eluted during the running time of the gradient program. […]

[2] = as above; type: in vivo, rats; settings: rat, liver, oral, 5 mg/kg b. w.
Description: as §1, §2, §3

[3] = Metabolite profiling of ADP in excreta, plasma and bile (LC-v.ARC/MS-IT-TOF); type: in vivo, swine; settings: for percentage of the individual metabolite compared with the total concentration of ADP-related: within 6 h after dosing; for Average percentage of ADP and its metabolites in total dose: Swine, Urine, single oral 5 mg/kg b.w. ^3H-ADP
Description: (§4) Animals (4 swine, 6 broilers, 6 carp, and 3 male and 3 female rats) were housed individually in clean, suspended wire-mesh metabolism cages, designed to separate the urine from the feces (carp were raised in individual aquaria). Each animal was weighed and assigned with a permanent identification number. A single dose of ^3 H-ADP (5 mg/kg b. w., 0.1 Ci/g) was administered via the oral gavage. Excreta were collected on ice at the pre-administration, in the period of 6, 12, and 24 h on day 1 d, and afterwards, intermittently in the period of 24 h up to 14 d. The piscine excreta were collected by changing and collecting raised water. The total volume or weight of each sample was measured and homogenized. The total radioactivity levels were determined through LSC for the recovery calculations. After the preparation, the samples were analyzed through LC/MS-IT-TOF with v. ARC radiometric detection (XenoBioticLaboratories, Inc.) for metabolite profiling. The pretreatment samples were used as controls to determine the background radioactivity or the endogenous nondrug-related ions observed within respective matrices or their extracts.
as §1
(§5) For metabolite profiling, the urine and feces samples from each animals were pooled proportionally to the excreted amount in each sampling period from 0 to 6 h, 6 h to 1 d, 1 to 3 d, 3 to 7 d, and 7 to 14 d post-dose, respectively. All samples were fully homogenized before the process. The pre-dose and blank samples served as the controls for determining the background radioactivity or the endogenous, nondrug-related ions observed within respective matrices or their extracts.
(§6) The urine samples (plasma, bile and raised water for carp) was subjected to solid-phase extraction with an Oasis MCX cartridge (3 mL, […]; Waters, Milford, MA, USA) for metabolite purification and enrichment. The pH value was adjusted to 2.8–3.2 by adding 1 M hydrochloric acid (HCl), and 2 mL of the sample was transferred into MCX cartridge, which was preconditioned with 3 mL of methanol and 3 mL of 0.1 mol/L HCl solution. The cartridge was washed with 3 mL of 0.1 mol/L HCl solution and was eluted with 5 mL of NH4OH/methanol (4:96, v:v). The effluent was concentrated to dryness under a stream of nitrogen at 40 °C. […]

[4] = as above; type: in vivo, rats
Description: as §4, §1, §5, §6

[5] = Concentration and elimination of ADP and its metabolites in liver, kidney, muscle, fat/skin after oral ^3H-ADP for 7 d; type: in vivo, broilers; settings: broiler chicken, kidney, oral, 5 mg/kg b.w.
Description: as §1, §2, §3

[6] = Metabolite profiling of ADP in excreta, plasma and bile (LC-v.ARC/MS-IT-TOF); type: in vivo, broilers
Description: as §4, §1, §5, §6

[7] = rats, within 3 d; cited from earlier work

| Compound | concentration at 0.25 d ([1]; kidney) | concentration at 1 d ([1]; kidney) | concentration at 0.25 d ([1]; liver) | concentration at 0.25 d [2] | percentage of the individual metabolite compared with the total concentration of ADP-related ([3]; Swine Plasma) | percentage of the individual metabolite compared with the total concentration of ADP-related ([3]; Swine Urine) | Average percentage of ADP and its metabolites in total dose [3] | Average percentage of ADP and its metabolites in total dose ([4]; Rat, Urine, single oral 5 mg/kg b.w. ^3H-ADP) | percentage of the individual metabolite compared with the total concentration of ADP-related ([4]; Rats Urine, within 6 h after dosing) | concentration at 1 d ([1]; liver) | concentration at 0.25 d [5] | percentage of the individual metabolite compared with the total concentration of ADP-related ([6]; Broilers Extra (excreta), within 6 h after dosing) | Average percentage of ADP and its metabolites in total dose ([6]; Broilers, Excreta, single oral 5 mg/kg b.w. ^3H-ADP) | oral dose recovered [7] |
| --- | --- | --- | --- | --- | --- | --- | --- | --- | --- | --- | --- | --- | --- | --- |
| COc1cc(C(O)c2cnc(N)nc2N)cc(O)c1N(C)C (stereo not drawn) [A6, 3-OH-α-OH-ADP] | 690 ± 100 ng/g | 60 ± 30 ng/g | 360 ± 40 ng/g | 10 ± 10 ng/g | 3.8% | 6.4% | 3.7% | 0.5% | 3.1% |  |  |  |  |  |
| CNc1c(OC)cc(C(O)c2cnc(N)nc2N)cc1OC (stereo not drawn) [A5, 4-methylamino-α-OH-ADP] | 710 ± 110 ng/g | 270 ± 150 ng/g | 430 ± 40 ng/g |  | 1.6% | 1.2% | 1.9% |  |  | 260 ± 40 ng/g |  |  |  |  |
| COc1cc(Cc2cnc(N)nc2N)cc(OC)c1OC [TMP, trimethoprim] |  |  |  |  |  |  |  |  |  |  |  |  |  | more than 95 % of the oral dose |
| COc1cc(C(O)c2cnc(N)nc2N)cc(OC)c1N(C)C (stereo not drawn) [A8, α-OH-ADP] |  |  | 20 ng/g |  |  | 1.4% | 1.0% |  |  |  |  |  |  |  |

Now from value to compound, other results behind:

| concentration at 0.25 d ([1]; kidney) | concentration at 1 d ([1]; kidney) | concentration at 0.25 d ([1]; liver) | concentration at 0.25 d [2] | percentage of the individual metabolite compared with the total concentration of ADP-related ([3]; Swine Plasma) | percentage of the individual metabolite compared with the total concentration of ADP-related ([3]; Swine Urine) | Average percentage of ADP and its metabolites in total dose [3] | Average percentage of ADP and its metabolites in total dose ([4]; Rat, Urine, single oral 5 mg/kg b.w. ^3H-ADP) | percentage of the individual metabolite compared with the total concentration of ADP-related ([4]; Rats Urine, within 6 h after dosing) | concentration at 1 d ([1]; liver) | concentration at 0.25 d [5] | percentage of the individual metabolite compared with the total concentration of ADP-related ([6]; Broilers Extra (excreta), within 6 h after dosing) | Average percentage of ADP and its metabolites in total dose ([6]; Broilers, Excreta, single oral 5 mg/kg b.w. ^3H-ADP) | Compound | oral dose recovered [7] |
| --- | --- | --- | --- | --- | --- | --- | --- | --- | --- | --- | --- | --- | --- | --- |
| 520 ± 80 ng/g | 480 ± 260 ng/g | 320 ± 30 ng/g |  | 4.6% | 4.8% | 3.1% |  |  | 270 ± 40 ng/g |  |  |  | CNc1c(O)cc(C(O)c2cnc(N)nc2N)cc1OC (stereo not shown) [A4, 3-OH-4-methylamino-ADP] |  |
|  |  | 790 ± 170 ng/g |  |  | 1.9% | 1.8% |  |  | 450 ± 90 ng/g |  |  |  | CNc1c(O)cc(Cc2cnc(N)nc2N)cc1OC [A7, 4-methylamino-3-OH-ADP] |  |
|  |  | 940 ± 170 ng/g |  |  | 9.7% | 5.4% |  |  |  | 110 ± 90 ng/g | 3.5% | 6.4% | COc1cc(Cc2cnc(N)nc2N)cc(O)c1N(C)C [A3, 3-OH-ADP] |  |
